The source of these data is ChEMBL document CHEMBL3638030, “IC50 data for the L-type calcium channel extracted from a set of literature articles”.

The term IC50 denotes the concentration that gives 50% inhibition.

Test [1] has as its target T1, Voltage-dependent L-type calcium channel subunit alpha-1C (Rattus norvegicus, UniProt P22002). Put plainly: Inhibition of Cav1.2 calcium current measured using FLIPR in rat aortic A7r5 cells. The test is classed as functional, cell-based.
Test [2] addresses T1, Voltage-dependent L-type calcium channel subunit alpha-1C. Put plainly: (§1) Inhibition of Cav1.2 calcium current measured using whole cell patch clamp in rat myocyte. It counts as functional, Heart, Cardiac Muscle Cell. Also on record: ca sol conc 1.8 mM, temp 20-25 C. Background: In patch-clamp work, channel activity is measured electrically.
Test [3] deals with T2, Voltage-dependent L-type calcium channel subunit alpha-1C (Cavia porcellus, UniProt O35505). Put plainly: (§2) Inhibition of Cav1.2 calcium current measured using whole cell patch clamp in guinea pig ventricular myocytes. The test is classed as functional, cell-based, Heart, Ventricular myocyte. Also on record: ca sol conc 1.8 mM.
T2 sequence (O35505 whole entry): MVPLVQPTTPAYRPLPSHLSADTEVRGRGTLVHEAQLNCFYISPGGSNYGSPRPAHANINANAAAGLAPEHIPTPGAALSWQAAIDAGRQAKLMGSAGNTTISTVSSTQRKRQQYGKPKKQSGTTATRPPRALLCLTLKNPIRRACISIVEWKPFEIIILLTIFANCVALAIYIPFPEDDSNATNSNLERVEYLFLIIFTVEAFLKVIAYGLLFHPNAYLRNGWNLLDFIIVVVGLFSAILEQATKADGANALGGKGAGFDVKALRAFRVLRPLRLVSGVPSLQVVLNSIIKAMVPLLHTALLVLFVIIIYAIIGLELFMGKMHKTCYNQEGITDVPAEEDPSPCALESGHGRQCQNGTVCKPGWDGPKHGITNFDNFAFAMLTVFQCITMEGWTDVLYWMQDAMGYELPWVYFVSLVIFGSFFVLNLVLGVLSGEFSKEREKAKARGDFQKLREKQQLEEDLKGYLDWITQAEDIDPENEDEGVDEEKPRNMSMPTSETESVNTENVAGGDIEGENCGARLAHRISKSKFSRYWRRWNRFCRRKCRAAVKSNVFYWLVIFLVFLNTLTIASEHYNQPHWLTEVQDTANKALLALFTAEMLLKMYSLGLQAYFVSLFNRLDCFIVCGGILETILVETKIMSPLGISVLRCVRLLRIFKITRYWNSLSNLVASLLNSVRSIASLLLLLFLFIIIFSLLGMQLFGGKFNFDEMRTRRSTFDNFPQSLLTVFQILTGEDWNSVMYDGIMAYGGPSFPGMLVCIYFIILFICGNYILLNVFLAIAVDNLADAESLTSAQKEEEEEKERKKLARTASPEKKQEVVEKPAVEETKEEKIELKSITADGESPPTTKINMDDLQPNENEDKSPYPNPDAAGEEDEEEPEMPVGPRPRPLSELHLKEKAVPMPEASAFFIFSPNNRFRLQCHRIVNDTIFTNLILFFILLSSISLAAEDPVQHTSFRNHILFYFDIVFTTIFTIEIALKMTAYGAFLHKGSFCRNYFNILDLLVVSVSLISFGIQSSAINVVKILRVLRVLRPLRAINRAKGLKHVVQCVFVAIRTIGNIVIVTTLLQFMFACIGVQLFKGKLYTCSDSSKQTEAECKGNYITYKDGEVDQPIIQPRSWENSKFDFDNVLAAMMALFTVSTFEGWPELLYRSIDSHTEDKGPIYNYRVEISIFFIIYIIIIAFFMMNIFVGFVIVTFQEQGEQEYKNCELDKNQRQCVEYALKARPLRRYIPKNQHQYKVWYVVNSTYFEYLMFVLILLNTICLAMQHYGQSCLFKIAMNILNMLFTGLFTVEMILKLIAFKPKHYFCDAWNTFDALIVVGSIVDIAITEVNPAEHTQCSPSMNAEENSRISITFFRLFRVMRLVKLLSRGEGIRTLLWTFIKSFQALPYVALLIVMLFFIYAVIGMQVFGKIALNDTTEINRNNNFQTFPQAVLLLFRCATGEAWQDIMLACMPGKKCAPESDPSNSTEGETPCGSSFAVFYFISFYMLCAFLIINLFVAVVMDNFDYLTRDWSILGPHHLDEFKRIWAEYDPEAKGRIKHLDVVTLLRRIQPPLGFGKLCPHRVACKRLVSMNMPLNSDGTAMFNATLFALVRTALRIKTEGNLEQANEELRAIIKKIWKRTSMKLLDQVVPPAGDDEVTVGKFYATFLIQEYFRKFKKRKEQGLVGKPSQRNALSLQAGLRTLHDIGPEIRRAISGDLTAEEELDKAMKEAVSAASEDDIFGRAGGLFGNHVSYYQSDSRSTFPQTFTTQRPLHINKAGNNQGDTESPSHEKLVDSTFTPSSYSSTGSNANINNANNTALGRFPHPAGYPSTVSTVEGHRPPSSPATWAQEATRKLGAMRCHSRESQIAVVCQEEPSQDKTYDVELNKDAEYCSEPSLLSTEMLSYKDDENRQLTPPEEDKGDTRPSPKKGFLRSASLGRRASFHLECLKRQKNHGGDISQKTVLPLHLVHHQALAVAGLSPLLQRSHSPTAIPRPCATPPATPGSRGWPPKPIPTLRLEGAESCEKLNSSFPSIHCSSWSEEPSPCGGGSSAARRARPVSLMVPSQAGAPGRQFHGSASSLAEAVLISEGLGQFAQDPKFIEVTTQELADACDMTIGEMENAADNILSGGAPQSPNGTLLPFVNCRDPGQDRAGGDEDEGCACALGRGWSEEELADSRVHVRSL
Test [4] concerns the target T2, Voltage-dependent L-type calcium channel subunit alpha-1C. Described as §2. It counts as functional, cell-based, Heart, Ventricular myocyte. Set-up: ca sol conc 1.8 mM. The source holds these as a separate data set.
Test [5] shares this target. Described as §2. It counts as functional, cell-based, Heart, Ventricular myocyte. Set-up: ca sol conc 1.8 mM, temp 25-27 C.
For test [6], the target named is Voltage-dependent L-type calcium channel subunit alpha-1C (Homo sapiens, UniProt Q13936). Put plainly: Inhibition of Cav1.2 calcium current measured using Voltage-clamp 2-electrode in Xenopous Oocyte transfected with human L-type calcium channel. It counts as functional, cell-based, Xenopus. Also on record: ca sol conc 4 - Ba(OH)2 mM, temp 20-22 C.
Test [7] deals with Voltage-dependent L-type calcium channel subunit alpha-1C (Oryctolagus cuniculus, UniProt P15381). Put plainly: Inhibition of Cav1.2 calcium current measured using whole cell patch clamp in rabbit ventricular myocytes. It counts as functional, cell-based, Heart, Ventricular myocyte. Also on record: ca sol conc 1 - BaCl2 mM, temp 37 C.
Test [8] has as its target T2, Voltage-dependent L-type calcium channel subunit alpha-1C. The test is described as §2. The test is classed as functional, cell-based, Heart, Ventricular myocyte. Set-up: ca sol conc 5 mM, temp 20-22 C.
For test [9] the target is unchanged. The test is described as §2. It counts as functional, cell-based, Heart, Ventricular myocyte. Set-up: ca sol conc 5 mM, temp 20-22 C. This is another data set of the same source.
The target in test [10] is T3, Voltage-dependent L-type calcium channel subunit alpha-1C (Mus musculus, UniProt Q01815). Put plainly: (§3) Inhibition of Cav1.2 calcium current measured using whole cell patch clamp in mouse ventricular myocytes. It counts as functional, cell-based, Heart, Ventricular myocyte. Set-up: ca sol conc 2.5 mM, temp 22-24 C.
T3 sequence (Q01815 whole entry): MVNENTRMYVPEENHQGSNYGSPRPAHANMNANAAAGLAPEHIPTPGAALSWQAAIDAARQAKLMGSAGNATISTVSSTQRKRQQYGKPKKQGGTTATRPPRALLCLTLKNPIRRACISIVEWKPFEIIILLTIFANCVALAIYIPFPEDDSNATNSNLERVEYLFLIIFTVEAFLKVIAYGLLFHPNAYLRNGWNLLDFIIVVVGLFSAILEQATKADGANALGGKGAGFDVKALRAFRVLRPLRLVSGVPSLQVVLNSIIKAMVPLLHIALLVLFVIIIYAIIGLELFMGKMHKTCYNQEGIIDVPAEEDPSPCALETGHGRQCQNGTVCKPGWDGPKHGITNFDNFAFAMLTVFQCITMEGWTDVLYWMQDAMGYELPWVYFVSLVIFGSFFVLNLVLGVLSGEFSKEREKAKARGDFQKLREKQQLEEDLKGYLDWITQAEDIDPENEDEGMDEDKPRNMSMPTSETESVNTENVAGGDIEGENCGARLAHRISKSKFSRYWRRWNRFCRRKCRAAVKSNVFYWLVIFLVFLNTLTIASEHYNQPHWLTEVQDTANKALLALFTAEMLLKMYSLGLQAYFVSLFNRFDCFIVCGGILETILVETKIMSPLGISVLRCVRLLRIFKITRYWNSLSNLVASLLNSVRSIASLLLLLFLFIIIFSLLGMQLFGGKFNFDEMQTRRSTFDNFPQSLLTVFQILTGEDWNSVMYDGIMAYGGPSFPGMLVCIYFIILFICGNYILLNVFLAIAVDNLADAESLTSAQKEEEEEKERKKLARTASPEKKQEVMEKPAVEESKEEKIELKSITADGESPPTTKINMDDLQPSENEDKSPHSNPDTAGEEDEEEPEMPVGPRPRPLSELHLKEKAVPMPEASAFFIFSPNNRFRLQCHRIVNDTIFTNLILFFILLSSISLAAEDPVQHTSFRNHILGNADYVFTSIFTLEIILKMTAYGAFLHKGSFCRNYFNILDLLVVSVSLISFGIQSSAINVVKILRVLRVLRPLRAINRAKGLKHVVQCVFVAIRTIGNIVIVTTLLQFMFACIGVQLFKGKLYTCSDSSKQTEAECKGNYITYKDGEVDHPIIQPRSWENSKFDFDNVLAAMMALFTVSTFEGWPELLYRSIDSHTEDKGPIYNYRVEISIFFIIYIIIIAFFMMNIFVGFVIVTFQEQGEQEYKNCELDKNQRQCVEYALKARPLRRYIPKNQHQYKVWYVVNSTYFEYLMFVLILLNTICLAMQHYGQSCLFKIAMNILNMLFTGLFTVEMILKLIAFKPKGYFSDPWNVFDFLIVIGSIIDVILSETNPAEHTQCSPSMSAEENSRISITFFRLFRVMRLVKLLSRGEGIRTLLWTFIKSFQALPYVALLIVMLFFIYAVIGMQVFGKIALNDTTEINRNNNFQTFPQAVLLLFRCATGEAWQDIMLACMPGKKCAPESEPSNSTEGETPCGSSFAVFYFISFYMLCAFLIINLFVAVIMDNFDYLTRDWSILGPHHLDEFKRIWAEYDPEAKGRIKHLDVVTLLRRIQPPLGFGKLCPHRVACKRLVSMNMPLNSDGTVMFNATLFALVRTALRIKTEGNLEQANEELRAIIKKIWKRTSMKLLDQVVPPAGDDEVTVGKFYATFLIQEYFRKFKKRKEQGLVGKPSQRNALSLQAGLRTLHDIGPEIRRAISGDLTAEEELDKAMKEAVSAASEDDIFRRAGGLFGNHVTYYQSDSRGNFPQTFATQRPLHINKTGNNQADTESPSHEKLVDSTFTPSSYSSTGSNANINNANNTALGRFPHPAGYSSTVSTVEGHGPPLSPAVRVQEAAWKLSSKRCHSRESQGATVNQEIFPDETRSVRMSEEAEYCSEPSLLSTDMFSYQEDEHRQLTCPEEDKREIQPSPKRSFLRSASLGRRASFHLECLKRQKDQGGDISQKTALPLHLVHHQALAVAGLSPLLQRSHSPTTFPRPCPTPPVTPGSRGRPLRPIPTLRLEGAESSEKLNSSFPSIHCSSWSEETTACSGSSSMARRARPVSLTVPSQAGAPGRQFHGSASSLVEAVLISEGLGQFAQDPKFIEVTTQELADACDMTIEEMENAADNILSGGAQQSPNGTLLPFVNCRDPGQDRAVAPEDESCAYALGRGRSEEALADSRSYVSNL
For test [11], the target named is T1, Voltage-dependent L-type calcium channel subunit alpha-1C. Described as §1. It counts as functional, Heart. Also on record: ca sol conc 1.8 mM, temp 20-25 C. The following applies: cardiac muscle cell.
Test [12] has the same target. Put plainly: (§4) Inhibition of Cav1.2 calcium current measured using whole cell patch clamp in rat ventricular myocytes. The test is classed as functional, cell-based, Heart, Ventricular myocyte. Also on record: ca sol conc 1.8 mM, temp 25-27 C.
Test [13] has the same target. Put plainly: Inhibition of Cav1.2 calcium current measured using whole cell patch clamp in rat Artery myocytes. Set-up: ca sol conc 5 mM, temp 20-22 C. It counts as functional, cell-based, Tail.
The target is the same in test [14]. Put plainly: Inhibition of Cav1.2 calcium current measured using whole cell patch clamp in rat atrial myocytes. Also on record: ca sol conc 2 mM, temp 22-24 C. The test is classed as functional, cell-based, Heart, Cardiac Muscle Cell.
Test [15] deals with L-type calcium channel alpha 1C/beta 2A (Oryctolagus cuniculus, UniProt P15381+P54288). Put plainly: Inhibition of Cav1.2 calcium current measured using whole cell patch clamp in human HEK293 cells transfected with rabbit L-type calcium channel subunits. The test is classed as functional, cell-based. Set-up: ca sol conc 5 mM, temp room.
In test [16] the target is T1, Voltage-dependent L-type calcium channel subunit alpha-1C. The test is described as §4. The test is classed as functional, cell-based, Heart, Ventricular myocyte. Also on record: ca sol conc 1.8 mM, temp 25 C.
The target of test [17] is T3, Voltage-dependent L-type calcium channel subunit alpha-1C. The description is as §3. It counts as functional, cell-based, Heart, Ventricular myocyte. Set-up: ca sol conc 2 mM, temp room.
The target is the same in test [18]. The test is described as §3. The test is classed as functional, cell-based, Heart, Ventricular myocyte. Also on record: ca sol conc 2 mM, temp room. This is another data set of the same source.
In test [19] the target is T1, Voltage-dependent L-type calcium channel subunit alpha-1C. The test is described as §4. The test is classed as functional, cell-based, Heart, Ventricular myocyte. Also on record: ca sol conc 1.8 mM.
The target in test [20] is T2, Voltage-dependent L-type calcium channel subunit alpha-1C. The test is described as §2. It counts as functional, cell-based, Heart, Ventricular myocyte. Also on record: ca sol conc 1 mM, temp 35 C.
Test [21] has the same target. The test is described as §2. The test is classed as functional, cell-based, Heart, Ventricular myocyte. Set-up: ca sol conc 1.8 mM, temp 35-36 C.
The target is the same in test [22]. The test is described as §2. Set-up: ca sol conc 0.5 mM. It counts as functional, cell-based, Heart, Ventricular myocyte.

On to `COCCOc1c(F)cccc1CCN1CCC(CC(=O)N[C@@H](c2ccc(F)cc2)C(C)C)CC1`, for which the IC50 in test [1] turned out to be 2.1 µM. As for `Clc1ccc(COC(Cn2ccnc2)c2ccc(Cl)cc2Cl)c(Cl)c1` (stereo not drawn) [MICONAZOLE], the IC50 in test [2] was 3 µM. Take `COc1cccc(/C=C/CN2CCC(=C3c4ccccc4C=Cc4ccccc43)CC2)c1[N+](=O)[O-]`: the values for the half-inhibitory concentration (IC50) in test [3] and in [4] were 4.91 µM and 0.32 µM, respectively. As for `COCC(=O)O[C@]1(CCN(C)CCCc2nc3ccccc3[nH]2)CCc2cc(F)ccc2[C@@H]1C(C)C` [MIBEFRADIL], the IC50 in [1] came to 1.1 µM. Take `O=C(/C=C/c1ccc(O)c(O)c1)OCCc1ccccc1` [CAFFEIC ACID PHENETHYL ESTER]: in test [5], the concentration for half-maximal inhibition (IC50) is 1.1 µM. As for `CCN(CC)CC(=O)N1C[C@@H](c2ccc(Cl)cc2)Sc2ccccc21`, in [6], the IC50 came to 52 µM. On to `CC(C)[C@@H]1CC[C@@H](C)C[C@H]1O` [LEVOMENTHOL], for which the half-inhibitory concentration (IC50) in [7] is 74.6 µM. As to `CC1=C(C(=O)OC(C)C)[C@@H](c2cccc3nonc23)C([N+](=O)[O-])=C(C)N1`, the IC50 amounted to 0.001 µM in test [8] and 0.2 µM in [9]. For `CCC(C)c1ccccc1OC(=O)NC` (stereo not drawn) [FENOBUCARB], in [3], the IC50 is 520 µM. In the case of `CCC(C)(C)C(=O)O[C@H]1C[C@@H](C)C=C2C=C[C@H](C)[C@H](CC[C@@H](O)C[C@@H](O)CC(=O)O)[C@H]21` [TENIVASTATIN], the IC50 in test [10] is 3.9 µM.

`CCC(C)n1ncn(-c2ccc(N3CCN(c4ccc(OCC5COC(Cn6cncn6)(c6ccc(Cl)cc6Cl)O5)cc4)CC3)cc2)c1=O` (stereo not drawn) [ITRACONAZOLE]: the half-inhibitory concentration (IC50) entry in test [11] is “inactive at 10uM. Original reference for datapoint is pubmed_id: 22975497”. With `COc1ccc2c(c1OC)[C@@H]1Cc3cc4c(cc3[C@H](C2)N1C)OCO4`, the IC50 in test [12] was 6.6 µM. Regarding `COc1ccc2c(=O)c3c(n(Cc4ccccc4)c2c1)OCC3=O`, in test [5], the IC50 amounted to 4 µM. Consider `COCCOc1cc(F)ccc1CCN1CCC(CC(=O)N[C@@H](c2ccc(F)cc2)C(C)C)CC1`, for which the IC50 in test [1] was found to be 1.9 µM. The same measure, in the same setting: next, `CC(C)C(CNC(=O)C1CCN(CCc2ccccc2)CC1)c1ccc(F)cc1` (stereo not drawn): 3.9 µM.

As to `O=c1c(-c2ccc(O)cc2)coc2cc(O)cc(O)c12` [GENISTEIN], in [13], the IC50 is 57.5 µM. Consider `O=C1CSC(c2ccccc2Cl)c2cc(Cl)ccc2N1` (stereo not drawn), for which the IC50 in [14] amounted to 0.27 µM. Consider `O=c1cc(N2CCOCC2)oc2c(-c3ccccc3)cccc12` [LY-294002], for which the IC50 in test [15] is 12 µM. Regarding `COc1ccc(CCN(C)CCCOc2ccc(S(=O)(=O)c3c(C(C)C)c4ccccc4n3C)cc2)cc1OC`, the concentration for half-maximal inhibition (IC50) was 0.024 µM in test [16], 0.0041 µM in [17] and 0.033 µM in test [18].

For `CC(C)CC(N(C)C)C1(c2ccc(Cl)cc2)CCC1` (stereo not drawn) [SIBUTRAMINE], the IC50 in [19] is 9.97 µM. As for `CC(C)[C@@H](NC(=O)NC1CCN(CCc2ccccc2)CC1)c1ccc(F)cc1`, the IC50 in [1] worked out at 5 µM.

In the case of `CN1CCN(c2ncc(-c3cc(Cl)cc(Cl)c3Cl)c(N)n2)CC1` [SIPATRIGINE], the IC50 in test [20] stood at 6.02 µM.

In the case of `CCC(CC)(CNC(=O)C1CCN(CCc2ccccc2)CC1)c1ccc(F)cc1`, the IC50 in [1] came to 4.4 µM. As to `O=c1cc(-c2ccccc2)oc2cc(O)c(O)c(O)c12` [BAICALEIN], the IC50 in [13] worked out at 85.1 µM. `CCNCC#CC(C)(C)OC(=O)C(O)(c1ccccc1)C1CCCCC1` (stereo not drawn): in test [21], the IC50 was determined as 27 µM. For `CC(C)[C@@H](NC(=O)CC1CCN(CCc2ccccc2)CC1)c1ccc(F)cc1`, the half-inhibitory concentration (IC50) in test [1] stood at 10 µM.

As to `CC1=C(C(=O)OC(C)C)[C@H](c2cccc3nonc23)C([N+](=O)[O-])=C(C)N1` (mixture of isomers), in test [9], the IC50 amounted to 0.08 µM. With `COc1ccc2c(c1OC)C[N+]1(Cc3ccc(Cl)cc3)CCc3cc4c(cc3C1C2)OCO4` (stereo not drawn), the IC50 in test [22] came to 11.5 µM.

In the case of `COc1cc(C[C@H](C)[C@@H](C)C(=O)c2ccc(O)c(OC)c2)ccc1O`, the IC50 in test [5] came out at 7.5 µM.
